Results as given in US6274715A, “Tricyclic erythromycin derivatives” (priority 1997, dated 2001).
≈ marks a conversion by molar mass, not a printed value.

How the values were obtained:
Format in all cases: cell-based
[1] = tested on: STAPHYLOCOCCUS AUREUS ATCC 6538P; test: In vitro antibacterial activity, MIC, BHI agar dilution; details: S. aureus ATCC 6538P, 35-37° C., 20 to 24 hours, unit assumed
[2] = tested on: STAPHYLOCOCCUS AUREUS A5177; test: as above; details: S. aureus A5177, unit assumed
[3] = tested on: STAPHYLOCOCCUS AUREUS A-5278; test: as above; details: S. aureus A-5278, unit assumed
[4] = tested on: STAPHYLOCOCCUS AUREUS CMX 642A; test: as above; details: S. aureus CMX 642A, unit assumed
[5] = tested on: STAPHYLOCOCCUS AUREUS NCTC10649M; test: as above; details: S. aureus NCTC10649M, unit assumed
[6] = tested on: STAPHYLOCOCCUS AUREUS CMX 553; test: as above; details: S. aureus CMX 553, unit assumed
[7] = tested on: STAPHYLOCOCCUS AUREUS 1775; test: as above; details: S. aureus 1775, unit assumed
[8] = tested on: STAPHYLOCOCCUS EPIDERMIDIS 3519; details: S. epidermidis 3519; BHI agar; unit assumed
EN[…] ATCC 8043 = test: In vitro antibacterial activity, MIC, BHI agar dilution; details: E. faecium ATCC 8043, unit assumed
Summary of the method: (§1)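 MIC was read visually as the lowest drug level with no growth, a slight haze or sparsely isolated colonies relative to a compound-free growth control. Organisms were spotted at 1:100 dilution (1:10 for slow-growing strains) onto Brain Heart Infusion agar containing serial compound dilutions and incubated 20 to 24 hours at 35-37° C.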

M[…] ATCC 4698 = test: as above; details: M. luteus ATCC 4698, unit assumed
Summary of the method: as §1

M[…] ATCC 9341 = test: as above; details: M. luteus ATCC 9341, unit assumed
Summary of the method: as §1

STR[…] 508 = test: as above; details: S. agalactiae CMX 508, unit assumed
Summary of the method: as §1

[9] = tested on: STREPTOCOCCUS BOVIS A-5169; test: as above; details: S. bovis A-5169, unit assumed
[10] = tested on: STREPTOCOCCUS PYOGENES EES61; test: as above; details: S. pyogenes EES61, unit assumed
[11] = tested on: STREPTOCOCCUS PYOGENES 930; test: as above; details: S. pyogenes 930, unit assumed
[12] = tested on: STREPTOCOCCUS PYOGENES PIU 2548; test: as above; details: S. pyogenes PIU 2548, unit assumed
ESCHERICHIA COLI JUHL = details: E. coli JUHL; BHI agar; unit assumed
ESCHERICHIA COLI SS = test: In vitro antibacterial activity, MIC, BHI agar dilution; details: E. coli SS, unit assumed
ESCHERICHIA COLI DC-2 = test: as above; details: E. coli DC-2, unit assumed
ESCHERICHIA COLI H560 = test: as above; details: E. coli H560, unit assumed
ESCHERICHIA COLI KNK 437 = details: E. coli KNK 437; BHI agar; unit assumed
[13] = tested on: ENTEROBACTER AEROGENES ATCC 13048; test: In vitro antibacterial activity, MIC, BHI agar dilution; details: E. aerogenes ATCC 13048, unit assumed
[14] = tested on: KLEBSIELLA PNEUMONIAE ATCC 8045; test: as above; details: K. pneumoniae ATCC 8045, unit assumed
[15] = tested on: PROVIDENCIA STUARTII CMX 640; details: P. stuartii CMX 640; BHI agar; unit assumed
[16] = tested on: PSEUDOMONAS AERUGINOSA BMH10; test: In vitro antibacterial activity, MIC, BHI agar dilution; details: P. aeruginosa BMH10, unit assumed
[17] = tested on: PSEUDOMONAS AERUGINOSA 5007; test: as above; details: P. aeruginosa 5007, unit assumed
[18] = tested on: PSEUDOMONAS AERUGINOSA K799/WT; test: as above; details: P. aeruginosa K799/WT, unit assumed
[19] = tested on: PSEUDOMONAS AERUGINOSA K799/61; test: as above; details: P. aeruginosa K799/61, unit assumed
PSEUDOMONAS CEPACIA 296I = test: as above; details: P. cepacia 296I, unit assumed
[20] = tested on: PSEUDOMONAS AERUGINOSA DPHD-5263; test: as above; details: P. aeruginosa DPHD-5263, unit assumed
[21] = tested on: PSEUDOMONAS AERUGINOSA DPHD-2862; test: as above; details: P. aeruginosa DPHD-2862, unit assumed
CANDIDA ALBICANS CCH 442 = test: as above; details: C. albicans CCH 442, unit assumed
[22] = tested on: MYCOBACTERIUM SMEGMATIS ATCC 114; test: as above; details: M. smegmatis ATCC 114, unit assumed

Row | SMILES | MIC [1] [µg/mL] | MIC [2] [µg/mL] | MIC [3] [µg/mL] | MIC [4] [µg/mL] | MIC [5] [µg/mL] | MIC [6] [µg/mL] | MIC [7] [µg/mL] | MIC [8] [µg/mL] | MIC (EN[…] ATCC 8043) [µg/mL] | MIC (M[…] ATCC 4698) [µg/mL] | MIC (M[…] ATCC 9341) [µg/mL] | MIC (STR[…] 508) [µg/mL] | MIC [9] [µg/mL] | MIC [10] [µg/mL] | MIC [11] [µg/mL] | MIC [12] [µg/mL] | MIC (ESCHERICHIA COLI JUHL) [µg/mL] | MIC (ESCHERICHIA COLI SS) [µg/mL] | MIC (ESCHERICHIA COLI DC-2) [µg/mL] | MIC (ESCHERICHIA COLI H560) [µg/mL] | also measured
1 | CC[C@H]1OC(=O)[C@H](C)C(=O)[C@H](C)[C@@H](O[C@@H]2O[C@H](C)C[C@H](N(C)C)[C@H]2O)[C@](C)(OC)C[C@@H](C)C2=NC[C@H](CSCc3ccccc3)N3C(=O)O[C@@]1(C)[C@H]3[C@H]2C [Example 66] | 0.1 (≈ 0.129 µM) | 0.1 (≈ 0.129 µM) | > 100 | 0.2 (≈ 0.258 µM) | 0.1 (≈ 0.129 µM) | 0.2 (≈ 0.258 µM) | > 100 | 0.2 (≈ 0.258 µM) | 0.02 (≈ 0.0258 µM) | 0.2 (≈ 0.258 µM) | 0.02 (≈ 0.0258 µM) | 0.01 (≈ 0.0129 µM) | 0.01 (≈ 0.0129 µM) | 0.01 (≈ 0.0129 µM) | > 100 | 0.39 (≈ 0.504 µM) | 25 (≈ 32.3 µM) | 0.39 (≈ 0.504 µM) | 12.5 (≈ 16.1 µM) | 12.5 (≈ 16.1 µM) | MIC (ESCHERICHIA COLI KNK 437): 25 µg/mL (≈ 32.3 µM); MIC [13]: > 100 µg/mL; MIC [14]: > 100 µg/mL; MIC [15]: > 100 µg/mL; MIC [16]: 100 µg/mL (≈ 129 µM); MIC [17]: > 100 µg/mL; MIC [18]: 100 µg/mL (≈ 129 µM); MIC [19]: 0.39 µg/mL (≈ 0.504 µM); MIC (PSEUDOMONAS CEPACIA 296I): 100 µg/mL (≈ 129 µM); MIC [20]: 100 µg/mL (≈ 129 µM); MIC [21]: > 100 µg/mL; MIC (CANDIDA ALBICANS CCH 442): > 100 µg/mL; MIC [22]: 0.39 µg/mL (≈ 0.504 µM)
2 | CC[C@H]1OC(=O)[C@H](C)C(=O)[C@H](C)[C@@H](O[C@@H]2O[C@H](C)C[C@H](N(C)C)[C@H]2O)[C@](C)(OC)C[C@@H](C)C2=NC[C@H](Cc3cscn3)N3C(=O)O[C@@]1(C)[C@H]3[C@H]2C [Example 69] | 0.2 (≈ 0.272 µM) | 0.2 (≈ 0.272 µM) | > 100 | 0.39 (≈ 0.531 µM) | 0.2 (≈ 0.272 µM) | 0.2 (≈ 0.272 µM) | > 100 | 0.2 (≈ 0.272 µM) | 0.1 (≈ 0.136 µM) | 0.2 (≈ 0.272 µM) | 0.05 (≈ 0.068 µM) | 0.02 (≈ 0.0272 µM) | 0.01 (≈ 0.0136 µM) | 0.02 (≈ 0.0272 µM) | > 100 | 0.39 (≈ 0.531 µM) | 100 (≈ 136 µM) | 0.39 (≈ 0.531 µM) | 50 (≈ 68 µM) | 50 (≈ 68 µM) | MIC (ESCHERICHIA COLI KNK 437): > 100 µg/mL; MIC [13]: > 100 µg/mL; MIC [14]: > 100 µg/mL; MIC [15]: > 100 µg/mL; MIC [16]: > 100 µg/mL; MIC [17]: > 100 µg/mL; MIC [18]: > 100 µg/mL; MIC [19]: 0.78 µg/mL (≈ 1.06 µM); MIC (PSEUDOMONAS CEPACIA 296I): > 100 µg/mL; MIC [20]: > 100 µg/mL; MIC [21]: > 100 µg/mL; MIC (CANDIDA ALBICANS CCH 442): > 100 µg/mL; MIC [22]: 3.1 µg/mL (≈ 4.22 µM)
